In brackets after ≈: the same amount, converted by molar mass. Activity calls are given as the source filed them. The rule behind the calls is not given here.
Legend:
Candida albicans [1] = experiment: Antifungal activity against fluconazole/ITC-resistant Candida albicans ATCC 90819 measured after 48 hrs by CLSI M27-A3 protocol based method; assay type: functional; conditions: ATCC 90819, 48 h
Aspergillus flavus = experiment: Antifungal activity against Aspergillus flavus ATCC MYA-3631 measured after 48 hrs by CLSI M38-A2 protocol based method; assay type: functional; conditions: ATCC MYA-3631, 48 h
Enterococcus = experiment: Antibacterial activity against vancomycin-resistant Enterococcus; assay type: functional, organism-based
Staphylococcus aureus = experiment: Antibacterial activity against methicillin-resistant Staphylococcus aureus; assay type: functional, organism-based
Candida albicans [2] = experiment: Antifungal activity against fluconazole/ITC-susceptible Candida albicans ATCC MYA-2876 measured after 48 hrs by CLSI M27-A3 protocol based method; assay type: functional; conditions: ATCC MYA-2876, 48 h
Candida albicans [3] = experiment: Antifungal activity against fluconazole/ITC-resistant Candida albicans ATCC MYA-1237 measured after 48 hrs by CLSI M27-A3 protocol based method; assay type: functional; conditions: ATCC MYA-1237, 48 h
Candida parapsilosis = experiment: Antifungal activity against Candida parapsilosis ATCC 22019 measured after 48 hrs by CLSI M27-A3 protocol based method; assay type: functional; conditions: Lodderomyces parapsilosis, ATCC 22019, 48 h
Candida albicans [4] = experiment: Antifungal activity against fluconazole/ITC-resistant Candida albicans ATCC MYA-1003 measured after 48 hrs by CLSI M27-A3 protocol based method; assay type: functional; conditions: ATCC MYA-1003, 48 h
Pichia kudriavzevii = experiment: Antifungal activity against Candida krusei ATCC 6258 measured after 48 hrs by CLSI M27-A3 protocol based method; assay type: functional; conditions: ATCC 6258, 48 h
Aspergillus nidulans = experiment: Antifungal activity against Aspergillus nidulans ATCC 38163 measured after 48 hrs by CLSI M38-A2 protocol based method; assay type: functional; conditions: ATCC 38163, 48 h
Aspergillus terreus = experiment: Antifungal activity against Aspergillus terreus ATCC MYA-3633 measured after 48 hrs by CLSI M38-A2 protocol based method; assay type: functional; conditions: ATCC MYA-3633, 48 h
Listeria monocytogenes = experiment: Antibacterial activity against Listeria monocytogenes; assay type: functional, organism-based
Nakaseomyces glabratus = experiment: Antifungal activity against Candida glabrata ATCC 2001 measured after 48 hrs by CLSI M27-A3 protocol based method; assay type: functional; conditions: CBS 138, 48 h
Candida albicans [5] = experiment: Antifungal activity against fluconazole/ITC-resistant Candida albicans ATCC 10231 measured after 48 hrs by CLSI M27-A3 protocol based method; assay type: functional; conditions: ATCC 10231, 48 h
Candida albicans [6] = experiment: Antifungal activity against fluconazole/ITC-susceptible Candida albicans ATCC MYA-2310 measured after 48 hrs by CLSI M27-A3 protocol based method; assay type: functional; conditions: ATCC MYA-2310, 48 h
Candida albicans [7] = experiment: Antifungal activity against fluconazole/ITC-resistant Candida albicans ATCC 64124 measured after 48 hrs by CLSI M27-A3 protocol based method; assay type: functional; conditions: ATCC 64124, 48 h

Structure (SMILES) | MIC (Candida albicans [1]) [µg/mL] | MIC (Aspergillus flavus) [µg/mL] | Activity (Enterococcus) | Activity (Staphylococcus aureus) | MIC (Candida albicans [2]) [µg/mL] | MIC (Candida albicans [3]) [µg/mL] | MIC (Candida parapsilosis) [µg/mL] | MIC (Candida albicans [4]) [µg/mL] | MIC (Pichia kudriavzevii) [µg/mL] | MIC (Aspergillus nidulans) [µg/mL] | MIC (Aspergillus terreus) [µg/mL] | Activity (Listeria monocytogenes) | MIC (Nakaseomyces glabratus) [µg/mL] | MIC (Candida albicans [5]) [µg/mL] | MIC (Candida albicans [6]) [µg/mL] | MIC (Candida albicans [7]) [µg/mL]
COc1ccccc1N/N=C(\C)c1ccc(-c2ccc(/C(C)=N/Nc3ccccc3OC)cc2)cc1 | > 31.3 | > 31.3 | inactive | inactive | > 31.3 | > 31.3 | 31.3 (≈ 65.4 µM) | 31.3 (≈ 65.4 µM) | 31.3 (≈ 65.4 µM) | > 31.3 | > 31.3 | inactive | > 31.3 | 15.6 (≈ 32.6 µM) | > 31.3 | > 31.3
Clc1ccc(N/N=C/c2ccc(-c3cccc(/C=N/Nc4ccc(Cl)cc4)c3)cc2)cc1 | 15.6 (≈ 34 µM) | > 31.3 | inactive | inactive | 15.6 (≈ 34 µM) | 15.6 (≈ 34 µM) | 3.9 (≈ 8.49 µM) | 3.9 (≈ 8.49 µM) | 31.3 (≈ 68.1 µM) | > 31.3 | > 31.3 | inactive | 15.6 (≈ 34 µM) | 7.8 (≈ 17 µM) | 31.3 (≈ 68.1 µM) | 7.8 (≈ 17 µM)
N#Cc1ccc(N/N=C/c2ccc(-c3ccc(/C=N/Nc4ccc(C#N)cc4)cc3)cc2)cc1 | > 31.3 | > 31.3 | inactive | inactive | > 31.3 | > 31.3 | > 31.3 | 31.3 (≈ 71.1 µM) | > 31.3 | > 31.3 | 31.3 (≈ 71.1 µM) | inactive | > 31.3 | > 31.3 | > 31.3 | > 31.3
COc1cccc(N/N=C(\C)c2ccc(-c3ccc(/C(C)=N/Nc4cccc(OC)c4)cc3)cc2)c1 | 31.3 (≈ 65.4 µM) | > 31.3 | inactive | inactive | 15.6 (≈ 32.6 µM) | 31.3 (≈ 65.4 µM) | 15.6 (≈ 32.6 µM) | 3.9 (≈ 8.15 µM) | 0.98 (≈ 2.05 µM) | > 31.3 | > 31.3 | inactive | 15.6 (≈ 32.6 µM) | 0.98 (≈ 2.05 µM) | 15.6 (≈ 32.6 µM) | 0.98 (≈ 2.05 µM)
Brc1ccc(N/N=C/c2ccc(-c3ccc(/C=N/Nc4ccc(Br)cc4)cc3)cc2)cc1 | > 31.3 | > 31.3 | inactive | inactive | > 31.3 | > 31.3 | 31.3 (≈ 57.1 µM) | > 31.3 | > 31.3 | > 31.3 | > 31.3 | inactive | > 31.3 | > 31.3 | > 31.3 | > 31.3
COc1ccc(N/N=C(\C)c2ccc(-c3ccc(/C(C)=N/Nc4ccc(OC)cc4)cc3)cc2)cc1 | 31.3 (≈ 65.4 µM) | > 31.3 | inactive | inactive | 15.6 (≈ 32.6 µM) | 7.8 (≈ 16.3 µM) | > 31.3 | 7.8 (≈ 16.3 µM) | 15.6 (≈ 32.6 µM) | > 31.3 | > 31.3 | inactive | 7.8 (≈ 16.3 µM) | 15.6 (≈ 32.6 µM) | 15.6 (≈ 32.6 µM) | 15.6 (≈ 32.6 µM)
CC[C@H](C)C[C@H](C)CCCCCCCCC(=O)N[C@H]1C[C@@H](O)[C@@H](NCCN)NC(=O)[C@@H]2[C@@H](O)CCN2C(=O)[C@H]([C@H](O)CCN)NC(=O)[C@H]([C@H](O)[C@@H](O)c2ccc(O)cc2)NC(=O)[C@@H]2C[C@@H](O)CN2C(=O)[C@H]([C@@H](C)O)NC1=O [CASPOFUNGIN] | 0.12 (≈ 0.11 µM) | > 31.3 |  |  | 0.06 (≈ 0.0549 µM) | 0.24 (≈ 0.22 µM) | 1.95 (≈ 1.78 µM) | 0.48 (≈ 0.439 µM) | 0.48 (≈ 0.439 µM) | > 31.3 | > 31.3 |  | 0.06 (≈ 0.0549 µM) | 0.975 (≈ 0.892 µM) | 0.12 (≈ 0.11 µM) | 0.24 (≈ 0.22 µM)
Fc1ccc(N/N=C/c2ccc(-c3ccc(/C=N/Nc4ccc(F)cc4F)cc3)cc2)c(F)c1 | 31.3 (≈ 67.7 µM) | > 31.3 | inactive | inactive | > 31.3 | > 31.3 | > 31.3 | > 31.3 | > 31.3 | > 31.3 | > 31.3 | inactive | > 31.3 | 7.8 (≈ 16.9 µM) | > 31.3 | > 31.3
Fc1cccc(N/N=C/c2ccc(-c3cccc(/C=N/Nc4cccc(F)c4F)c3)cc2)c1F | > 31.3 | > 31.3 | inactive | inactive | > 31.3 | > 31.3 | > 31.3 | > 31.3 | > 31.3 | > 31.3 | > 31.3 | inactive | > 31.3 | > 31.3 | > 31.3 | > 31.3
Fc1cccc(N/N=C/c2ccc(-c3ccc(/C=N/Nc4cccc(F)c4F)cc3)cc2)c1F | > 31.3 | > 31.3 | inactive | inactive | > 31.3 | > 31.3 | > 31.3 | > 31.3 | > 31.3 | > 31.3 | > 31.3 | inactive | > 31.3 | 31.3 (≈ 67.7 µM) | > 31.3 | > 31.3
N=C(N)N/N=C/c1ccc(-c2ccc(/C=N/NC(=N)N)cc2)cc1 | > 31.3 | > 31.3 |  |  | > 31.3 | > 31.3 | 3.9 (≈ 12.1 µM) | 15.6 (≈ 48.4 µM) | 15.6 (≈ 48.4 µM) | > 31.3 | > 31.3 |  | > 31.3 | 31.3 (≈ 97.1 µM) | > 31.3 | > 31.3
Fc1ccccc1N/N=C/c1ccc(-c2ccc(/C=N/Nc3ccccc3F)cc2)cc1 | 31.3 (≈ 73.4 µM) | > 31.3 | inactive | inactive | 15.6 (≈ 36.6 µM) | > 31.3 | > 31.3 | 15.6 (≈ 36.6 µM) | 3.9 (≈ 9.14 µM) | 31.3 (≈ 73.4 µM) | > 31.3 | inactive | > 31.3 | 3.9 (≈ 9.14 µM) | > 31.3 | > 31.3
Fc1cc(F)cc(N/N=C/c2ccc(-c3ccc(/C=N/Nc4cc(F)cc(F)c4)cc3)cc2)c1 | > 31.3 | > 31.3 | inactive | inactive | > 31.3 | > 31.3 | > 31.3 | > 31.3 | > 31.3 | > 31.3 | > 31.3 | inactive | > 31.3 | 15.6 (≈ 33.7 µM) | > 31.3 | > 31.3
C/C(=N\NC(=N)N)c1ccc(-c2ccc(/C(C)=N/NC(=N)N)cc2)cc1 | 3.9 (≈ 11.1 µM) | > 31.3 |  |  | 15.6 (≈ 44.5 µM) | 15.6 (≈ 44.5 µM) | 1.95 (≈ 5.56 µM) | 15.6 (≈ 44.5 µM) | 3.9 (≈ 11.1 µM) | 15.6 (≈ 44.5 µM) | > 31.3 |  | 7.8 (≈ 22.3 µM) | 3.9 (≈ 11.1 µM) | 15.6 (≈ 44.5 µM) | 3.9 (≈ 11.1 µM)
CC(C)Oc1ccc(N/N=C/c2ccc(-c3ccc(/C=N/Nc4ccc(OC(C)C)cc4)cc3)cc2)cc1 | > 31.3 | > 31.3 | inactive | inactive | > 31.3 | > 31.3 | > 31.3 | > 31.3 | > 31.3 | > 31.3 | > 31.3 | inactive | > 31.3 | > 31.3 | > 31.3 | > 31.3
Clc1ccc(N/N=C/c2ccc(-c3ccc(/C=N/Nc4ccc(Cl)cc4)cc3)cc2)cc1 | > 31.3 | > 31.3 | inactive | inactive | > 31.3 | > 31.3 | 31.3 (≈ 68.1 µM) | > 31.3 | 31.3 (≈ 68.1 µM) | > 31.3 | 31.3 (≈ 68.1 µM) | inactive | > 31.3 | > 31.3 | > 31.3 | > 31.3
CC(C)(C)N/N=C/c1ccc(-c2ccc(/C=N/NC(C)(C)C)cc2)cc1 | > 31.3 | > 31.3 | inactive | inactive | > 31.3 | 31.3 (≈ 89.3 µM) | > 31.3 | > 31.3 | 31.3 (≈ 89.3 µM) | 31.3 (≈ 89.3 µM) | > 31.3 | inactive | 15.6 (≈ 44.5 µM) | 31.3 (≈ 89.3 µM) | 31.3 (≈ 89.3 µM) | 31.3 (≈ 89.3 µM)

Source: ChEMBL document CHEMBL4411307, “N,N'-diaryl-bishydrazones in a biphenyl platform: Broad spectrum antifungal agents” (Eur J Med Chem, 2019)
